Series [1] deals with T1, Calcitonin gene-related peptide type 1 receptor (Homo sapiens, UniProt O60894+Q16602). Briefly: Displacement of [125I]-CGRP from CGRP receptor in human SK-N-MC cells. The class given is cell-based. (In general: In a radioligand displacement assay an active substance lowers the binding of a labelled ligand.)
For series [2], the system named is marmosets. Kind of series: Antimigraine activity in marmosets assessed as inhibition of alphaCGRP-induced increase in facial blood flow at 10 mg/kg, po by laser Doppler flowmetry. To be noted: Callitrichinae sp., in Callithrix jacchus. In kind it is functional.
Series [3] can be described thus: Half life in human liver microsomes at 0.5 uM. In kind it is ADME, Microsome.
Series [4] can be described thus: Oral bioavailability in cynomolgus monkey at 10 mg/kg. In kind it is ADME, organism-based, Macaca fascicularis. To be noted: in vivo.
In series [5] the test system is marmosets. Kind of series: Antimigraine activity in marmosets assessed as inhibition of human alphaCGRP-induced increase in facial blood flow at 7 mg/kg, sc measured after 105 mins by laser Doppler flowmetry. In kind it is functional. As to conditions: Callitrichinae sp., 1.75 h, route subcutaneous.
Series [6] in a line: Oral bioavailability in rat at 10 mg/kg. The class given is ADME, organism-based. As to conditions: in vivo.
In series [7] the target is T1, Calcitonin gene-related peptide type 1 receptor. Kind of series: Antagonist activity at CGRP receptor in human SK-N-MC cells assessed as inhibition of CGRP-stimulated cAMP production. In kind it is functional, cell-based. On the technique in general: Cyclic AMP is a second messenger, typically raised through Gs and lowered through Gi signalling.
Series [8] is described as follows: Permeability of the compound at pH 7.4 by PAMPA. In kind it is ADME. To be noted: read-out: permeability.
A short description of series [9]: Permeability of the compound at pH 5.5 by PAMPA. The class given is ADME. As to conditions: read-out: permeability.
A short description of series [10]: Plasma concentration on marmosets at 7 mg/kg, sc measured after 105 mins. In kind it is ADME, organism-based. As to conditions: callitrichinae sp. Also noted: dose 7 mg/kg, route subcutaneous.
Series [11] is described as follows: Oral bioavailability in dog at 10 mg/kg. The class given is ADME, organism-based, Canis lupus familiaris. As to conditions: in vivo.
Series [12] can be described thus: Plasma concentration on marmosets at 7 mg/kg, sc measured after 60 mins. In kind it is ADME, organism-based. The arrangement: dose 7 mg/kg, route subcutaneous. As to conditions: callitrichinae sp.
Series [13] has as its system marmosets. Kind of series: Antimigraine activity in marmosets assessed as inhibition of human alphaCGRP-induced increase in facial blood flow at 7 mg/kg, sc measured after 60 mins by laser Doppler flowmetry. The class given is functional. To be noted: Callitrichinae sp., 1 h, route subcutaneous.
The nature of series [14]: Metabolic stability of the compound in human liver microsomes assessed as compound remaining at 0.5 uM after 10 mins. In kind it is ADME, Microsome. To be noted: read-out: Stability.

SMILES strings stand for the structures.

T1 sequence (Q16602 whole entry, one chain of several): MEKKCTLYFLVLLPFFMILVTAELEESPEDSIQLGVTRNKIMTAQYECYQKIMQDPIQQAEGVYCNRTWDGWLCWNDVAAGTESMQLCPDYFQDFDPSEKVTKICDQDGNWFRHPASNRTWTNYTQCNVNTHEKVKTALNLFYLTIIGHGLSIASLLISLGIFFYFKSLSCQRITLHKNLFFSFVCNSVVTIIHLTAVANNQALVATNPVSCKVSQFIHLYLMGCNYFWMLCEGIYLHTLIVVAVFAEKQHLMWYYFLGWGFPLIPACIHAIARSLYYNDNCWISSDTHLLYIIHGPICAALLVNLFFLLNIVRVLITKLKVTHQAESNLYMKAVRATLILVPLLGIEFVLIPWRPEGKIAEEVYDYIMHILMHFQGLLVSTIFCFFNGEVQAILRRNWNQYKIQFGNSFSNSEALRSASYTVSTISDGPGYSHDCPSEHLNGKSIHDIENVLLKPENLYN

With `Cc1cc(CC(OC(=O)N2CCC(n3c(=O)[nH]c4ncccc43)CC2)c2cc(C(=O)N(C)C)cc(Cl)n2)cc2cn[nH]c12` (racemic), the Ki – broadly, the equilibrium dissociation constant of an inhibitor or competing ligand from its target – in [1] amounted to 71 pM. Besides, the inhibition in vivo – broadly, the percentage by which the read-out fell short of the control – at 10 mg/kg with marmosets [2] turned out to be 31%.

With `O=C(O[C@@H]1CC[C@@H](c2cccc(F)c2F)Cc2cccnc21)N1CCC(n2c(=O)[nH]c3ncccc32)CC1`, in [3], the half-life – broadly, the time needed for the level to fall by half in the phase considered – at 0.5 µM came to 24 min. Besides, the bioavailability – broadly, dose-corrected exposure relative to a reference, in per cent – in series [4] turned out to be 38%; in series [6] it was 29%; in [11] it was 34%. Besides, the inhibition in vivo at 7 mg/kg in the series with marmosets [5] and in the series with marmosets [13] was 52% throughout. For the same compound, the IC50 (commonly the concentration at which inhibition is half-maximal) in series [7] was found to be 220 pM. The Papp in series [8] is 88 ×10⁻⁶ cm/s; in series [9], 150 ×10⁻⁶ cm/s. Besides, the concentration at 1.75 h in series [10] was more than 1500 nM. Also, the Ki in [1] was 70 pM. For the same compound, in [12], the concentration at 1 h is more than 1000 nM. The remaining at 10 min, 0.5 µM in [14] came to 74%.

`O=C(O[C@H]1CC[C@H](c2cccc(F)c2F)Cc2cccnc21)N1CCC(n2c(=O)[nH]c3ncccc32)CC1`: the Ki in [1] worked out at 940000 pM.

The record behind these values is ChEMBL document CHEMBL2062501 (ACS Med Chem Lett, 2012).
